Tested on: co-culture cell-line model of intestinal epithelial cells containing Caco-2 and HT29-MTX cells
Assay: Direct effect of 3-hydroxybutyric acid on inflammation-induced epithelial barrier dysfunction (FD4 translocation)
Type: cell-based, human
Settings: 10 μM apical, 36 hours pre-treatment, then TNF-α (2.5 ng/ml) and IFN-γ (10 ng/ml) for 48 hours
Description: The human Caco-2 and HT29-MTX cell lines were obtained from the American Type Culture Collection (ATCC) and the European Collection of Authenticated Cell Cultures (ECACC), respectively. Caco-2 cell and HT29-MTX were maintained separately in culture flasks at 37° C. under humidified 10% CO2 atmosphere in Dulbecco's […] (DMEM) supplemented with GlutaMAX (Invitrogen), 1% […], 100 μg/ml streptomycin, 100 UI/ml penicillin and heat inactivated fetal bovine serum (FBS; 15% for Caco-2 and 10% for HT29-MTX). To make co-culture for epithelial barrier studies, each cell lines were expanded in their respective flasks until 90% confluent monolayers were reached. Cell lines are then trypsinized with 1× trypsin. Co-culture of Caco-2 and HT29-MTX were seeded at 6×10^4/cm^2 on 1.12 cm^2 Transwell Polycarbonate semi-permeable membranes (0.4 μm) and grown in DMEM supplemented with GlutaMAX, 1% minimum essential media, 100 μg/ml streptomycin, 100 UI/ml penicillin and 10% heat inactivated FBS for 21 days. […] At the end of the experiment, translocation of the FITC-labeled dextran (4000 Da) from the apical to basolateral compartment was quantified within a 2-hour period. FD4 translocation data were analysed by using the two-sided two-sample Student t-test assuming unequal variances.

## CC(O)CC(=O)O (stereo not shown) [3-hydroxybutyric acid]
  Epithelial barrier intactness: translocation of FITC-labeled dextran (FD4) from apical to basolateral compartment relative to control +ve (FIG. 6): protect the barrier against inflammation-induced epithelial barrier hyperpermeability

Source: US20230225999A1, “A NUTRITIONAL COMPOSITION COMPRISING 3-HYDROXYBUTYRIC ACID TO IMPROVE THE GASTROINTESTINAL BARRIER” (priority 2020, published 2023)
